Experimental data reported in patent publication US6335339B1, “Triazine antiviral compounds” (Scriptgen Pharmaceuticals, Inc., priority 1998, dated 2002).

Legend:
[1] = tested on: HBV εRNA; test: εRNA/oligonucleotide hybridization inhibition assay with rRNA competitor; format: binding, Hepatitis B virus; settings: for IC50: radiolabeled εRNA, 60-fold excess rRNA competitor; for Specificity: ratio RRE+rRNA IC50/εRNA+rRNA IC50, max = inactive in RRE assay
Text: One assay used in determining the activity of the compounds of the present invention is disclosed in copending U.S. patent application Ser. No. 08/709,342, filed Sep. 6, 1996, the disclosure of which is hereby incorporated herein by reference in its entirety. The assay detects the interaction between target RNA molecule and a test ligand by measuring the ligand's ability to inhibit hybridization between the RNA and a specific complementary oligonucleotide. In one embodiment, the target RNA is radiolabelled and the oligonucleotide is labeled with biotin; in this case, the extent of hybridization is determined by measuring the amount of radiolabeled RNA detected with a streptavidin/biotin-based capture system.
Concentrations of test compounds of between about 0.1 μM and about 200 μM are assayed for inhibition using radiolabeled εRNA in the absence or presence of a large excess of an unlabeled non-specific RNA competitor (such as, e.g., ribosomal RNA, rRNA). Compounds that bind εRNA non-specifically are competitively displaced by the rRNA, resulting in reduced or no inhibition of hybridization between the radiolabeled εRNA and the biotinylated oligonucleotide. Conversely, the inhibitory activity of compounds that specifically bind εRNA is not affected by the presence of the competitor rRNA.
The high throughput assays were performed in 96-well plates containing eighty drugs (5 μl, 60 μg/ml in DMSO) distributed one per well in columns 2-6 and 8-12 of the 8×12 96-well array. The remaining 16 wells in columns 1 and 7 were filled with 5 μl DMSO to serve as the control reactions. 45 μl of reaction mixture containing buffer, salts and radiolabeled target RNA were delivered on each well of the compound-containing plates to yield a 50 μl mixture containing 50 mM Tris-HCl, pH 7.5, 200 mM KCl, 5 mM MgCl2, 5 mM DTT, 6 μg/ml test compound, and 25 nM [^32 P]-labeled εRNA. The reaction was started by addition of the biotinylated oligonucleotide, 262.104 A (5 μl) to a final concentration of 100 nM. The reaction was incubated at 25° C. for 60 minutes, and then 5 μl of 0.3 mg/ml SAAP (streptavidin alkaline phosphatase conjugate, Pierce, Rockford, Ill.) was added. The reaction was incubated for an additional 30 minutes at 25° C. and filtered through 96-well format HATF nitrocellulose filters (Millipore, Bedford, Mass.) using a multiscreen vacuum manifold (Millipore, Bedford, Mass.). Subsequently, 300 μl of wash buffer (50 mM Tris-HCl, pH 7.5, 200 mM KCl) was filtered through to wash the filters. The filters were dried and supplemented with 20 μl scintillation fluid (Super Mix, Wallac Oy, Turku, Finland). The amount of hybrids formed was determined by scintillation counting of the radiolabeled εRNA retained on the filters.
The inhibitory effect of a test compound (expressed as percentage of inhibition, % Inh.) was calculated using the following formula: […]
where Ro is the average retention of hybrids in the 16 identical control reactions in columns 1 and 7 and Rx is the hybrids retained in the presence of a test drug, x.
(§1) Biotinylated oligonucleotides 262.104 A (5′-biotin-TTAGGCACAGCTTGGAGGCTTGAACAGTG-3′) and 208.92 A (5′-biotin-CGTCATTGACGCTGCGCCCA-3′) were synthetically prepared (Oligos Etc., Willsonville, Oreg.). These oligonucleotides are complementary to regions of the εRNA and RRE RNA targets, respectively.
A plasmid containing the target sequence following the bacteriophage SP6 promoter was used as a template for the synthesis of radiolabeled εRNA using [α^32 P]-UTP and SP6 RNA polymerase as described by the suppliers, e.g., Ambion, Austin, Tex., and by methods well known to those of ordinary skill in the art.
Compounds that inhibited the primary screening assay described above were individually titrated in the same assay at concentrations between 0.1 μM and 200 μM in the absence and presence of 60-fold excess rRNA as a non-specific competitor. […]

[2] = tested on: HIV derived RRE RNA; test: heterologous hybridization inhibition assay with RRE RNA; format: binding; settings: radiolabeled RRE RNA, rRNA competitor
Text: Specificity is further tested in a third assay in which the radiolabeled RNA is the HIV derived RRE RNA and the biotinylated oligonucleotide is complementary to RRE. Compounds with high specific activity for εRNA are not expected to be inhibitory in the RRE RNA based assay. The specificity of the ligand for εRNA is expressed as the ratio between the IC50 value obtained with the specific target RNA and the IC50 value obtained with a heterologous target (RRE RNA), both in the presence of competitor RNA.
as §1
Compounds that inhibited the primary screening assay described above were individually titrated in the same assay at concentrations between 0.1 μM and 200 μM in the absence and presence of 60-fold excess rRNA as a non-specific competitor. A third titration was performed in a heterologous assay using radiolabeled RRE RNA as the target and the complementary biotinylated oligonucleotide 208.92 A. From these three assays, the IC50 values and specificity for each compound was calculated.
IC50 values using rRNA competitor (from Example 1) and radiolabeled RRE RNA are shown in Table 1 for the following ligands. […] Specificity is calculated as the ratio of RRE+rRNA IC50/εRNA+rRNA IC50.

SMILES | IC50 [1] [µM] | Specificity [1] | IC50 [2] [µM]
C(=NNc1nc(Nc2ccccc2)nc(N2CCCC2)n1)c1c[nH]c2ccccc12 [Compound 89] | 12.5 | 6.0 | 75.3
O=[N+]([O-])c1ccc(Nc2nc(NN=Cc3cc(Br)ccc3O)nc(N3CCCCCC3)n2)cc1 [Compound 90] | 15 | 3.0 | 44.9
Cc1[nH]c2ccccc2c1C=NNc1nc(Nc2ccc([N+](=O)[O-])cc2)nc(N2CCCCCC2)n1 [Compound 92] | 2.5 | 4.0 | 10.1
CN1CCN(c2nc(NN=Cc3cccc(Br)c3)nc(Nc3ccc([N+](=O)[O-])cc3)n2)CC1 [Compound 95] | 13.7 | 2.8 | 39
O=[N+]([O-])c1ccc(Nc2nc(NN=Cc3c(O)ccc4ccccc34)nc(N3CCOCC3)n2)cc1 [Compound 96] | 15 | 5.0 | 75
O=[N+]([O-])c1ccc(Nc2nc(NN=Cc3cc(Cl)ccc3O)nc(N3CCOCC3)n2)cc1 [Compound 106] | 12.1 | 5.8 | 70.1
O=[N+]([O-])c1ccc(Nc2nc(NN=Cc3cc(Br)ccc3O)nc(N3CCOCC3)n2)cc1 [Compound 107] | 14.9 | 1.7 | 25
O=[N+]([O-])c1ccc(Nc2nc(NN=Cc3cc(I)ccc3O)nc(N3CCCCC3)n2)cc1 [Compound 108] | 16.1 | 2.5 | 40
Cc1cc(I)cc(C=NNc2nc(Nc3ccc([N+](=O)[O-])cc3)nc(N3CCCCC3)n2)c1O [Compound 109] | 20 | 1.8 | 35
O=[N+]([O-])c1ccc(Nc2nc(NN=Cc3ccccc3)nc(N3CCOCC3)n2)cc1 [Compound 110] | 20 | 4.0 | 79.9
O=[N+]([O-])c1ccc(Nc2nc(NN=Cc3ccc(O)cc3)nc(N3CCCCC3)n2)cc1 [Compound 111] | 23 | 20.0 | 460
Cc1ccccc1Nc1nc(NN=Cc2ccc(-c3ccc([N+](=O)[O-])cc3)o2)nc(Nc2ccc([N+](=O)[O-])cc2)n1 [Compound 112] | 25 | 30.0 | 751
CCCCN(CCCC)c1nc(NN=Cc2cc3c(cc2Br)OCO3)nc(Nc2ccc([N+](=O)[O-])cc2)n1 [Compound 114] | 40 | 5.5 | 220
CCN(CC)c1nc(NN=Cc2ccncc2)nc(Nc2ccc([N+](=O)[O-])cc2)n1 [Compound 115] | 75.1 | 1.7 | 130
O=[N+]([O-])c1ccc(Nc2nc(NN=Cc3cccc(Oc4ccc([N+](=O)[O-])cc4[N+](=O)[O-])c3)nc(N3CCCCCC3)n2)cc1 [Compound 116] | 20 | 1.3 | 25.1
CC(=NNc1nc(Nc2ccc([N+](=O)[O-])cc2)nc(N2CCOCC2)n1)c1ccc([N+](=O)[O-])cc1 [Compound 118] | 25 | 2.0 | 50.1

SMILES | IC50 [1] [µM] | Specificity [1] | IC50 [2] [µM]
Oc1ccc(C=NNc2nc(Nc3ccccc3)nc(N3CCCC3)n2)c(O)c1 [Compound 119] | 35 | 7.1 | 250
O=[N+]([O-])c1ccc(Nc2nc(NN=Cc3ccccc3I)nc(N3CCCCC3)n2)cc1 [Compound 124] | 29.9 | 10.0 | 300
COc1ccc(C=NNc2nc(Nc3ccccc3)nc(Nc3ccc(C)cc3C)n2)cc1 [Compound 126] | 60.1 | 8.3 | 500
Clc1ccccc1C=NNc1nc(Nc2ccccc2)nc(N2CCCC2)n1 [Compound 127] | 80 | 1.0 | 80
Cc1[nH]c2ccccc2c1C=NNc1nc(Nc2ccc([N+](=O)[O-])cc2)nc(N2CCOCC2)n1 [Compound 128] | 22 | 4.5 | 99.9
CCOc1ccc(C=NNc2nc(Nc3ccc([N+](=O)[O-])cc3)nc(N3CCCCC3)n2)cc1O [Compound 129] | 25 | 4.8 | 120
O=C1Nc2ccccc2C1=NNc1nc(Nc2ccc([N+](=O)[O-])cc2)nc(N2CCOCC2)n1 [Compound 130] | 32.9 | 12.2 | 400
O=C(C(=NNc1nc(NCc2ccccc2)nc(Nc2ccc([N+](=O)[O-])cc2)n1)c1ccccc1)c1ccccc1 [Compound 131] | 36.7 | 1.0 | 36.7
CCN(CC)c1nc(NN=CC=Cc2ccccc2)nc(Nc2ccc([N+](=O)[O-])cc2)n1 [Compound 132] | 70.1 | 11.4 | 800
Cc1[nH]c2ccccc2c1C=NNc1nc(NCc2ccccc2)nc(N2CCOCC2)n1 [Compound 142] | 226 | 5.0 | 1130
COc1ccc([N+](=O)[O-])cc1C=NNc1nc(Nc2ccccc2)nc(N2CCCCC2)n1 [Compound 143] | 446 | 0.5 | 223
O=[N+]([O-])c1ccc(Nc2nc(NN=Cc3ccc(-c4ccc([N+](=O)[O-])cc4)o3)nc(Nc3ccccc3)n2)cc1 [Compound 144] | 1000 | 0.1 | 99.9
CC(=NNc1nc(Nc2ccc([N+](=O)[O-])cc2)nc(N2CCCCC2)n1)c1ccccc1 [Compound 151] | 200 | 3.5 | 700
O=[N+]([O-])c1ccc(Nc2nc(NN=Cc3ccc(O)c([N+](=O)[O-])c3)nc(N3CCOCC3)n2)cc1 [Compound 152] | 300 | 0.5 | 150
O=C1Nc2ccccc2C1=NNc1nc(Nc2ccc([N+](=O)[O-])cc2)nc(N2CCCCC2)n1 [Compound 153] | 500 | 1.0 | 500
CCCCN(CCCC)c1nc(NN=Cc2ccc(C=NNc3nc(Nc4ccc([N+](=O)[O-])cc4)nc(N(CCCC)CCCC)n3)cc2)nc(Nc2ccc([N+](=O)[O-])cc2)n1 [Compound 154] | 1180 | 0.3 | 300
